Measurements taken from article PMC9658017, “Hydroxygenkwanin Improves the Efficacy of Cytotoxic Drugs in ABCG2-Overexpressing Multidrug-Resistant Cancer Cells” (International Journal of Molecular Sciences, 2022).

Molecular target: T1, ABCG2 (Homo sapiens, UniProt Q9UNQ0)
T1 sequence (Q9UNQ0 1-655): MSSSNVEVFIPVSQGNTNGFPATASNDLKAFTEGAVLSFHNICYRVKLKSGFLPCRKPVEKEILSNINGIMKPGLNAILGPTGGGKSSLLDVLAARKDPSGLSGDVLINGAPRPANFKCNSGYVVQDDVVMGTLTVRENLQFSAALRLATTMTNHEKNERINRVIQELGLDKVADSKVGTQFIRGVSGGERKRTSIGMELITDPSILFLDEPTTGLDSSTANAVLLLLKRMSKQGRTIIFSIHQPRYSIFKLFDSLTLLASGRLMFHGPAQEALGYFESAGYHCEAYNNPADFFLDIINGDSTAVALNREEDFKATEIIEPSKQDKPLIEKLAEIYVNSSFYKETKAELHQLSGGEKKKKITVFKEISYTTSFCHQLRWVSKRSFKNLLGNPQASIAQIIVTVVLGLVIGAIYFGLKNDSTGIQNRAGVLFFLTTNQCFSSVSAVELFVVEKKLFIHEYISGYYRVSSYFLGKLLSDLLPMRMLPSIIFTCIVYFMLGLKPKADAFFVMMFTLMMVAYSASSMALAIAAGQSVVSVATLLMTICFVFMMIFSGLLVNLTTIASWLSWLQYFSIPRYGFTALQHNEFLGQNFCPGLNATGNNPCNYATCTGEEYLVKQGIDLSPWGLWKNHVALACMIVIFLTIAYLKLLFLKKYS
Test: biochemical

COc1cc(O)c2c(=O)cc(-c3ccc(O)c(O)c3)oc2c1 [HGK, Hydroxygenkwanin]
EC50: ~19 nM
